Structures are written as SMILES. pIC50: −log10 of the molar value. A value given as a limit tells only on which side of the number the result lay.

N6-adenosine-methyltransferase catalytic subunit, sequence (Q86U44 whole entry): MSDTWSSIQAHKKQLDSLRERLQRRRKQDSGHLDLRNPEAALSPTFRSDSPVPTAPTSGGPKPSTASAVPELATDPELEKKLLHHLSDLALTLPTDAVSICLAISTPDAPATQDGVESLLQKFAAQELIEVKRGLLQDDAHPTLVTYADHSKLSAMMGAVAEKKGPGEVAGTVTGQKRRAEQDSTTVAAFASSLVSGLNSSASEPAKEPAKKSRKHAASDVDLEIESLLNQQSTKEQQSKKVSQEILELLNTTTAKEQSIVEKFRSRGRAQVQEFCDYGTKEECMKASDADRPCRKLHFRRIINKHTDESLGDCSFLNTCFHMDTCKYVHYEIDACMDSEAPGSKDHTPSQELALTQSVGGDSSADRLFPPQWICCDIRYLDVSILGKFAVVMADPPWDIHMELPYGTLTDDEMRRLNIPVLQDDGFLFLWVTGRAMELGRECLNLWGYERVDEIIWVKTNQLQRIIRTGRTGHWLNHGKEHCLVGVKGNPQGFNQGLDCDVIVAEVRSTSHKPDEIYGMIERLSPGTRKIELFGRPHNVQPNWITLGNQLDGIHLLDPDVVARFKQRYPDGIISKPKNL

This assay has as its target N6-adenosine-methyltransferase catalytic subunit (Homo sapiens, UniProt Q86U44). In words: Inhibition of full length His-tagged METTL3 (unknown origin) co-expressed with full length FLAG-tagged METTL14 in baculovirus expression system preincubated using 5'P-uacacucgaucuggacuaaagcugcuc-3' as substrate and SAM as cosubstrate pre-incubated for 10 mins followed by addition of substrates and measured after 60 mins by RapidFire mass spectrometry (RF/MS) analysis.
For the compound `Nc1ncnc2c1c(Br)cn2[C@@H]1O[C@H](/C=C/CCCNCC2CC(F)(F)C2)[C@@H](O)[C@H]1O`, the pIC50 is 7.64.

On to `Nc1ncnc2c1c(Br)cn2[C@@H]1O[C@H](/C=C/CCCNCC23CC(F)(C2)C3)[C@@H](O)[C@H]1O`, for which the negative logarithm of the IC50 (pIC50) is over 8.22.

Turning to `Nc1ncnc2c1c(Br)cn2[C@@H]1C[C@H](c2ccc3cc(CNCC45CC(F)(C4)C5)[nH]c3c2)[C@@H](O)[C@H]1O`, the pIC50 was over 8.22.

These data come from ChEMBL document CHEMBL5393454, “Compounds inhibitors of mettl3” (2022).
